# Target: T1, Prostaglandin G/H synthase 2 (Homo sapiens, UniProt P35354)
# T1 sequence (P35354 whole entry): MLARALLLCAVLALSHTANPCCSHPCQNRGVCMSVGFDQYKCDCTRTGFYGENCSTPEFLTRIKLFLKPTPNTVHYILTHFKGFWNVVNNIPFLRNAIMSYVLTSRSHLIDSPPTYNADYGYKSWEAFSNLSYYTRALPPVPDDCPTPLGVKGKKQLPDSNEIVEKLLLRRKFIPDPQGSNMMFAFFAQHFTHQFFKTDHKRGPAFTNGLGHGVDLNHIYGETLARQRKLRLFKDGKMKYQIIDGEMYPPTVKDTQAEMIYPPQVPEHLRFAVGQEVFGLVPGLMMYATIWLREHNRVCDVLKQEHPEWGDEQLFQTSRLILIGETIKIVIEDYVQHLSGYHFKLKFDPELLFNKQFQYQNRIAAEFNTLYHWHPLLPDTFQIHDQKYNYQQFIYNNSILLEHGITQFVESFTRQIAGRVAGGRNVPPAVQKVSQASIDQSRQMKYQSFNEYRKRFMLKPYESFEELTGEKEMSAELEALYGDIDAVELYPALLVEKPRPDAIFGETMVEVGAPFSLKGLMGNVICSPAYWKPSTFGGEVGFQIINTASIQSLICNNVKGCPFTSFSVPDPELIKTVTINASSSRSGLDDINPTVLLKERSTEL
# Experiment: Inhibition of COX-2 (unknown origin)
# Conditions: not given
row,IC50 [µM],Structure (SMILES)
1,8.32,CCC(C)C(=O)[C@H]1C(=O)[C@@]2(CC=C(C)C)C[C@H](C[C@H]3[C@@H](C[C@H](C(C)(C)O)C3(C)C)C2=O)C1(C)C (stereo not given in full)
2,2.61,CCC(=O)c1nnn(-c2ccc(S(N)(=O)=O)cc2)c1C
3,5.27,CC(C)=CC[C@H]1C[C@@H]2C[C@@H]3[C@@H](C[C@]4(C)C(C)(C)OC[C@]34C)C(=O)[C@](C(=O)c3ccccc3)(C1=O)C2(C)C

# Target: COX-1/COX-2 (Homo sapiens) (UniProt P35354+P23219)
# Experiment: Selectivity index, ratio of IC50 for inhibition of COX-1 (unknown origin) to IC50 for inhibition of COX-2 (unknown origin)
# Type: protein assay
# Conditions: not given
row,Ratio IC50,Structure (SMILES)
1,1.95,CCC(=O)c1nnn(-c2ccc(S(N)(=O)=O)cc2)c1C

# Target: T2, Prostaglandin G/H synthase 2 (Homo sapiens) (UniProt P35354)
# T2 sequence (whole entry): T1 sequence (P35354 whole entry)
# Conditions: dose 2-10 nM, time 1.0 min
row,inhibition [%],Structure (SMILES)
1,< 98,CN1C/C(=C\c2ccc(F)s2)C2=NN(c3ccccc3)C(c3ccc(F)s3)C2C1 (stereo not given)
2,< 98,Cc1sc(/C=C2\CN(C)CC3C2=NN(c2ccccc2)C3c2cc(F)c(C)s2)cc1F (stereo not given)
3,< 98,Cc1csc(/C=C2\CN(C)CC3C2=NN(c2ccccc2)C3c2cc(C)cs2)c1 (stereo not given)
4,< 98,CN1C/C(=C\c2ccc(O)s2)C2=NN(c3ccccc3)C(c3ccc(O)s3)C2C1 (stereo not given)
5,< 98,CCc1ccc(/C=C2\CN(C)CC3C2=NN(c2ccccc2)C3c2ccc(CC)s2)s1 (stereo not given)
6,< 98,CN1C/C(=C\c2cccs2)C2=NN(c3ccccc3)C(c3cccs3)C2C1 (stereo not given)
7,< 98,CN1C/C(=C\c2ccc([N+](=O)[O-])s2)C2=NN(c3ccccc3)C(c3ccc([N+](=O)[O-])s3)C2C1 (stereo not given)
8,< 98,CN1C/C(=C\c2ccc(Br)s2)C2=NN(c3ccccc3)C(c3ccc(Br)s3)C2C1 (stereo not given)
9,< 98,CN1C/C(=C\c2ccc(Cl)s2)C2=NN(c3ccccc3)C(c3ccc(Cl)s3)C2C1 (stereo not given)
10,< 98,Cc1ccc(/C=C2\CN(C)CC3C2=NN(c2ccccc2)C3c2ccc(C)s2)s1 (stereo not given)
11,< 98,Cc1sc(/C=C2\CN(C)CC3C2=NN(c2ccccc2)C3c2cc(Br)c(C)s2)cc1Br (stereo not given)

# Target: T3, Polyunsaturated fatty acid lipoxygenase ALOX15 (Homo sapiens, UniProt P16050)
# T3 sequence (P16050 whole entry): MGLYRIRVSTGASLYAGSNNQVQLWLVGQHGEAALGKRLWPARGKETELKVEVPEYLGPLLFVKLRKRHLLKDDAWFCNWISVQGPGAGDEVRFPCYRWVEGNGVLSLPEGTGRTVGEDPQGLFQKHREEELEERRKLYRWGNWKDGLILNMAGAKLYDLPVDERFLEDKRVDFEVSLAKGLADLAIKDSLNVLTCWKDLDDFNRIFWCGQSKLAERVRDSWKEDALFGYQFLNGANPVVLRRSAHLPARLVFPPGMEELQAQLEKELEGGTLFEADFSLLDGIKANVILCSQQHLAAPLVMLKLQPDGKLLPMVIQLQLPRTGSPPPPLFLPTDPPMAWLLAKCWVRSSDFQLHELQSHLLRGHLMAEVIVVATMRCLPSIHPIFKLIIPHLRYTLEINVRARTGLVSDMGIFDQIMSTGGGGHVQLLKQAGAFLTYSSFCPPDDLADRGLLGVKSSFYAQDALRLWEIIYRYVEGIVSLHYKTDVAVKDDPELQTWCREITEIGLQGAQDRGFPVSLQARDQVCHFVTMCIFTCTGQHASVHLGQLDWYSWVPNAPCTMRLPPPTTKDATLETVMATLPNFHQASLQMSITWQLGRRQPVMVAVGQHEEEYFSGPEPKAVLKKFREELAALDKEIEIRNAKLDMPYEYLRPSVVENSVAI
# Experiment: Inhibition of 15-LOX (unknown origin)
# Conditions: not given
row,IC50 [µM],Structure (SMILES)
1,3.36,Cc1nnc(/N=C2\NC(=O)/C(=C/c3cccnc3)S2)s1
2,3.11,Cc1nnc(/N=C2\NC(=O)/C(=C/c3ccc(Cl)cc3)S2)s1
3,2.54,O=C1CS/C(=N/c2nnc(-c3ccccc3O)s2)N1
4,2.54,Cc1nnc(/N=C2\NC(=O)CS2)s1
5,2.54,O=C1CS/C(=N/c2nnc(-c3ccc(Br)cc3)s2)N1
6,3.11,Cc1nnc(/N=C2\NC(=O)/C(=C/c3ccc(F)cc3)S2)s1
7,3.11,Cc1nnc(/N=C2\NC(=O)/C(=C/c3ccc(Br)cc3)S2)s1
8,3.36,Cc1nnc(/N=C2\NC(=O)/C(=C/C3CCCCC3)S2)s1
9,3.36,Cc1nnc(/N=C2\NC(=O)/C(=C/C=C/c3ccccc3)S2)s1
10,3.36,Cc1nnc(/N=C2\NC(=O)/C(=C/c3ccsc3)S2)s1
11,3.11,Cc1nnc(/N=C2\NC(=O)/C(=C/c3ccc(N(C)C)cc3)S2)s1
12,3.11,COc1ccc(/C=C2\S/C(=N/c3nnc(C)s3)NC2=O)cc1
13,15.6,CC(c1cc2ccccc2s1)N(O)C(N)=O (stereo not given) [ZILEUTON]
14,2.54,O=C1CS/C(=N/c2nnc(-c3ccc(O)cc3)s2)N1
15,3.11,Cc1nnc(/N=C2\NC(=O)/C(=C/c3ccc(C(C)C)cc3)S2)s1
16,3.11,Cc1nnc(/N=C2\NC(=O)/C(=C/c3ccc(O)cc3)S2)s1
17,2.54,Cc1ccc(-c2nnc(/N=C3\NC(=O)CS3)s2)cc1

# Target: T1, Prostaglandin G/H synthase 2
# Experiment: Inhibition of COX-2 (unknown origin) by colorimetric assay
# Conditions: not given
row,IC50 [µM],Structure (SMILES)
1,0.28,CCCCNc1cc(-c2n[nH]c(=S)n2-c2ccccc2)cc(S(N)(=O)=O)c1Oc1ccccc1
2,1.52,C=CCn1c(-c2ccc(C)cc2)cs/c1=N\NC(=O)c1cc(NCCCC)c(Oc2ccccc2)c(S(N)(=O)=O)c1
3,5.11,CCCCNc1cc(C(=O)N2N=C(C)CC2=O)cc(S(N)(=O)=O)c1Oc1ccccc1
4,1.52,CCCCNc1cc(C(=O)N/N=c2\scc(-c3ccc(C)cc3)n2-c2ccccc2)cc(S(N)(=O)=O)c1Oc1ccccc1
5,4.75,CCCCNc1cc(C(=O)n2nc(C)cc2C)cc(S(N)(=O)=O)c1Oc1ccccc1

# More lines, now with the values behind:
row,Structure (SMILES),IC50 [µM]
1,CCCCNc1cc(C(=O)N/N=c2\scc(-c3ccc(C)cc3)n2-c2ccc(Br)cc2)cc(S(N)(=O)=O)c1Oc1ccccc1,1.52
2,CCCCNc1cc(C(=O)N/N=c2\scc(-c3ccc(OC)cc3)n2-c2ccc(Br)cc2)cc(S(N)(=O)=O)c1Oc1ccccc1,1.52
3,CCCCNc1cc(C(=O)N/N=c2\scc(-c3ccc(OC)cc3)n2-c2ccccc2)cc(S(N)(=O)=O)c1Oc1ccccc1,1.52
4,C=CCn1c(-c2ccc(OC)cc2)cs/c1=N\NC(=O)c1cc(NCCCC)c(Oc2ccccc2)c(S(N)(=O)=O)c1,1.52
5,C=CCn1c(-c2ccc(Cl)cc2)cs/c1=N\NC(=O)c1cc(NCCCC)c(Oc2ccccc2)c(S(N)(=O)=O)c1,1.52
6,CCCCNc1cc(C(=O)N/N=c2\scc(-c3ccc(Cl)cc3)n2-c2ccccc2)cc(S(N)(=O)=O)c1Oc1ccccc1,1.52
7,C=CCc1ccc(-n2c(-c3cc(NCCCC)c(Oc4ccccc4)c(S(N)(=O)=O)c3)n[nH]c2=S)cc1,4.59
8,CCCCNc1cc(C(=O)N/N=c2\scc(-c3ccc(Cl)cc3)n2-c2ccc(Br)cc2)cc(S(N)(=O)=O)c1Oc1ccccc1,1.52
9,CCCCNc1cc(-c2n[nH]c(=S)o2)cc(S(N)(=O)=O)c1Oc1ccccc1,5.73

# Target: T4, Polyunsaturated fatty acid 5-lipoxygenase (Homo sapiens, UniProt P09917)
# T4 sequence (P09917 whole entry): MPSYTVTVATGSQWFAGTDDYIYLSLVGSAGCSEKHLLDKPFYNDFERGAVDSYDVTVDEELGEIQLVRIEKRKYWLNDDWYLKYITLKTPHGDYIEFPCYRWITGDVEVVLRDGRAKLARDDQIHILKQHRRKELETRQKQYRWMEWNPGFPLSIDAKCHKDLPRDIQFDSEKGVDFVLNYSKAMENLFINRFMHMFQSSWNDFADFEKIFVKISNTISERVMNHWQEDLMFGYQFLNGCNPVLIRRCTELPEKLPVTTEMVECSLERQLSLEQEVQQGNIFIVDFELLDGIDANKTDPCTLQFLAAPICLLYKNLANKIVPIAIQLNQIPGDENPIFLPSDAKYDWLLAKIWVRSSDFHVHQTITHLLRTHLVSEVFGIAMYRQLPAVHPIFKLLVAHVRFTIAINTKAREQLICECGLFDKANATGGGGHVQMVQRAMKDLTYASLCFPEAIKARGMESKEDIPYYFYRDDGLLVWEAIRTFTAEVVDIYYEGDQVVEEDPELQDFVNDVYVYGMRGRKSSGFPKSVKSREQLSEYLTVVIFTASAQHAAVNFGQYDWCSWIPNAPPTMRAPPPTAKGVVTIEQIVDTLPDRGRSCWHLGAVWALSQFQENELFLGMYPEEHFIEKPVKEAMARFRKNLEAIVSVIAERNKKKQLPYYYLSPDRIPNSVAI
# Experiment: Inhibition of 5-LOX (unknown origin) using linoleic acid as substrate preincubated for 5 mins followed by substrate addition by absorbance based analysis
# Conditions: not given
row,IC50 [µM],Structure (SMILES)
1,0.38,O=C(/N=c1\scc(-c2ccc([N+](=O)[O-])cc2)n1-c1ccccc1)c1cccs1
2,0.38,O=C(/N=c1/scc(-c2ccccc2)n1-c1ccccc1)c1cccs1
3,0.38,O=C(/N=c1\scc(-c2ccc(C(F)(F)F)cc2)n1-c1ccccc1)c1cccs1
4,0.38,O=C(/N=c1\scc(-c2ccc(F)cc2)n1-c1ccccc1)c1cccs1
5,0.38,N#Cc1ccc(-c2cs/c(=N\C(=O)c3cccs3)n2-c2ccccc2)cc1
6,0.38,Cc1ccc(-c2cs/c(=N\C(=O)c3cccs3)n2-c2ccccc2)cc1
7,0.38,O=C(c1cccs1)c1sc(N2CCOCC2)nc1-c1ccccc1
8,0.38,O=C(c1cccs1)c1sc(Nc2ccccc2)nc1-c1ccc(F)cc1
9,0.38,Cc1ccc(-c2nc(N(c3ccccc3)c3ccccc3)sc2C(=O)c2cccs2)cc1

# The next lines start with the compound.
row,Structure (SMILES),IC50 [µM]
1,O=C(c1cccs1)c1sc(N(c2ccccc2)c2ccccc2)nc1-c1ccc(F)cc1,0.38
2,O=C(c1cccs1)c1sc(N(c2ccccc2)c2ccccc2)nc1-c1ccc([N+](=O)[O-])cc1,0.38
3,N#Cc1ccc(-c2nc(N(c3ccccc3)c3ccccc3)sc2C(=O)c2cccs2)cc1,0.38
4,N#Cc1ccc(-c2nc(N3CCOCC3)sc2C(=O)c2cccs2)cc1,0.38
5,O=C(c1cccs1)c1sc(N(c2ccccc2)c2ccccc2)nc1-c1ccc(C(F)(F)F)cc1,0.38
6,Cc1ccc(-c2nc(N3CCOCC3)sc2C(=O)c2cccs2)cc1,0.38
7,O=C(c1cccs1)c1sc(N2CCOCC2)nc1-c1ccc(F)cc1,0.38
8,O=C(c1cccs1)c1sc(N2CCOCC2)nc1-c1ccc(C(F)(F)F)cc1,0.38
9,O=C(c1cccs1)c1sc(N(c2ccccc2)c2ccccc2)nc1-c1ccccc1,0.38
10,O=C(c1cccs1)c1sc(N2CCOCC2)nc1-c1ccc([N+](=O)[O-])cc1,0.38

# Source: ChEMBL document CHEMBL5241111, “Non-steroidal anti-inflammatory drugs: recent advances in the use of synthetic COX-2 inhibitors” (RSC Med Chem, 2022)
